Among the test systems are MOLT-4 leukemia; MDA-MB-435; NCI-H226 lung; HCT-116 colon; LOX IMVI melanoma; SK-MEL-5 melanoma; SF-295 CNS; SNB-75 CNS; HCC-2998 colon; CAKI-1 renal; NCI/ADR-RES ovarian.
Holding throughout (assay): inhibition of tumour cell growth, NCI panel, 48 h

Structures are written as SMILES.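 48-hour exposure; five concentrations; linearly interpolated endpoints. TGI denotes the concentration required for complete inhibition of growth.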

In the case of `COC(=O)CCC1(O)C=CC(=O)C=C1`, the TGI in the assay on MOLT-4 leukemia, with MDA-MB-435, with NCI-H226 lung, with HCT-116 colon, with LOX IMVI melanoma and in the assay on SK-MEL-5 melanoma was over 100 µM throughout. The TGI in the assay on SF-295 CNS was over 100 µM; with SNB-75 CNS, over 100 µM; with HCC-2998 colon, over 100 µM; with CAKI-1 renal it was 33.1 µM; with NCI/ADR-RES ovarian, over 100 µM.

For `CC(=O)C1C(=O)C(=O)N(c2ccc(Br)cc2)C1=O` (stereo not drawn), the TGI with MOLT-4 leukemia, with MDA-MB-435, in the assay with NCI-H226 lung, in the assay with HCT-116 colon, with LOX IMVI melanoma and in the assay on SK-MEL-5 melanoma was over 100 µM in each case. In addition, the TGI with SF-295 CNS, in the assay on SNB-75 CNS, in the assay on HCC-2998 colon, in the assay with CAKI-1 renal and in the assay with NCI/ADR-RES ovarian was over 100 µM in each case.

In the case of `CC1=C(C(=O)NC(C)(C)C)CC(C(=O)NC(C)(C)C)C(C)N1` (stereo not drawn), the TGI in the assay with MOLT-4 leukemia, in the assay on MDA-MB-435, with NCI-H226 lung, in the assay on HCT-116 colon, with LOX IMVI melanoma and in the assay on SK-MEL-5 melanoma was over 100 µM in each case. Moreover, the TGI in the assay on SF-295 CNS, in the assay with SNB-75 CNS, in the assay on HCC-2998 colon, with CAKI-1 renal and with NCI/ADR-RES ovarian was over 100 µM each time.

These data come from PubChem BioAssay (NCI).
